Measured values as given in patent publication US8614166B2, “Herbicidal composition for tolerant or resistant cotton crops” (Bayer Intellectual Property GmbH, priority 1998, dated 2013).
Where a name gives a salt, the structure may show the parent alone.

Experiments:
Test in all cases: Field trial in tolerant cotton, herbicidal action against weed
Format in all cases: in vivo
[1] = tested on: Sorghum halepense; conditions: application in the 4-leaf stage, scoring 30 days after application
Description: (§1) Transgenic cotton plants with a resistance to one or more herbicides (A) together with typical weed plants were grown in the open on 2×5 m plots under natural field conditions; alternatively, weed infestation occurred naturally when the cotton plants were grown.
(§2) 2, 4, 6 and 8 weeks after the application, the herbicidal activity of the active substances or active substance mixtures was scored visually with reference to the treated plots in comparison to untreated control plots. The damage to, and the development of, all aerial parts of the plants was recorded. Scoring was done on the basis of a percentage sale (100% action=all plants destroyed; 50% action=50% of the plants and green parts of the plants destroyed; 0% action=no recognizable effect=like control plot. The mean of the score values of in each case 4 plots was calculated.

[2] = tested on: Abutilon theophrasti; conditions: dose 300 g of a.s./ha; application in the 4-5 leaf stage; scoring 27 days after application
Description: as §1, §2

[3] = tested on: Ipomoea hederacea; conditions: application in the 4-leaf stage, scoring 23 days after application
Description: as §1
(§3) […] The damage to, and the development of, all aerial parts of the plants was recorded. Scoring was done on the basis of a percentage sale (100% action=all plants destroyed; 50% action=50% of the plants and green parts of the plants destroyed; 0% action=no recognizable effect=like control plot. The mean of the score values of in each case 4 plots was calculated.

[4] = tested on: Echinocloa colonum; conditions: application in the 4-5-leaf stage, scoring 3 weeks after application
Description: as §1, §3

[5] = tested on: Datura stramonium; conditions: application in the 4-5-leaf stage, scoring 3 weeks after application
Description: as §1, §3

For `CP(=O)(O)CCC(N)C(=O)O` (stereo not shown) [(A1.2), glufosinate-monoammonium salt], the “Herbicidal action (%) against Sorghum halepense” value ([1]; dose 300 g of a.s./ha) was 15%, the “Herbicidal action (%) against Sorghum halepense” value ([1]; dose 500 g of a.s./ha) was 53% and the “Herbicidal action (%) against Abutilon theophrasti” value [2] was 30%. The “Herbicidal action (%) against Ipomoea hederacea” value ([3]; dose 400 g of a.s./ha) was 43%, the “Herbicidal action (%) against Ipomoea hederacea” value ([3]; dose 600 g of a.s./ha) was 75% and the “Herbicidal action (%) against Echinocloa colonum” value ([4]; dose 450 g of a.s./ha) was 0%. For the same compound, the “Herbicidal action (%) against Echinocloa colonum” value ([4]; dose 600 g of a.s./ha) was 15%, the “Herbicidal action (%) against Echinocloa colonum” value ([4]; dose 1000 g of a.s./ha) was 30% and the “Herbicidal action (%) against Datura stramonium” value ([5]; dose 450 g of a.s./ha) was 75%. The “Herbicidal action (%) against Datura stramonium” value ([5]; dose 600 g of a.s./ha) was 90% and the “Herbicidal action (%) against Datura stramonium” value ([5]; dose 1000 g of a.s./ha) was 100%.
`COCc1cnc(C2=NC(C)(C(C)C)C(=O)N2)c(C(=O)O)c1` (stereo not shown) [(A3.5), imazamox] was tested, and the “Herbicidal action (%) against Ipomoea hederacea” value ([3]; dose 35 g of a.s./ha) was 42%.
`CN(C)C(=O)Nc1cccc(C(F)(F)F)c1` [(B1.2), N,N-dimethyl-N′-[3-(trifluoromethyl)phenyl]urea] was tested, and the “Herbicidal action (%) against Ipomoea hederacea” value ([3]; dose 1120 g of a.s./ha) was 37%.
`CCc1cccc(C)c1N(C(=O)CCl)C(C)COC` (stereo not shown) [(B1.9), 2-chloro-N-(2-ethyl-6-methylphenyl)-N-(2-methoxy-1-methylethyl)acetamide] was tested, and the “Herbicidal action (%) against Echinocloa colonum” value ([4]; dose 930 g of a.s./ha) was 88% and the “Herbicidal action (%) against Datura stramonium” value ([5]; dose 930 g of a.s./ha) was 0%.
`CCC(CC)Nc1c([N+](=O)[O-])cc(C)c(C)c1[N+](=O)[O-]` [(B1.12), N-(1-ethylpropyl)-2,6-dinitro-3,4-xylidine] was tested, and the “Herbicidal action (%) against Ipomoea hederacea” value ([3]; dose 925 g of a.s./ha) was 42%.
With `COc1cc(OC)nc(Sc2cccc(Cl)c2C(=O)[O-])n1.[Na+]` [(B2.4), sodium 2-chloro-6-(4,6-dimethoxypyrimidin-2-ylthio)benzoate] the “Herbicidal action (%) against Ipomoea hederacea” value ([3]; dose 105 g of a.s./ha) was 42%.
In the case of `CCCC(=NOCC)C1=C(O)CC(C2CCCSC2)CC1=O` (stereo not shown) [(B4.2), 2-(1-ethoxyiminobutyl)-3-hydroxy-5-thian-3-ylcyclohex-2-enone], the “Herbicidal action (%) against Sorghum halepense” value ([1]; dose 125 g of a.s./ha) is reported as 58%.
`N#Cc1cc(Br)c(O)c(Br)c1` [(B5.1), 3,5-dibromo-4-hydroxybenzonitrile] was tested, and the “Herbicidal action (%) against Ipomoea hederacea” value ([3]; dose 560 g of a.s./ha) was 32%.
